Measurements as given in patent US20240262832A1, “SMALL MOLECULE MODULATORS OF GLUCOCEREBROSIDASE ACTIVITY AND USES THEREOF” (Vanqua Bio, Inc., priority 2021, published 2024).

The compounds below were run against T1, GCase (Homo sapiens, UniProt P04062) (assay: activation of GCase in a live cell PFB assay in HELA cells).
T1 construct: endogenous in cells; host or cells: HeLa cells
T1 sequence (P04062 40-536): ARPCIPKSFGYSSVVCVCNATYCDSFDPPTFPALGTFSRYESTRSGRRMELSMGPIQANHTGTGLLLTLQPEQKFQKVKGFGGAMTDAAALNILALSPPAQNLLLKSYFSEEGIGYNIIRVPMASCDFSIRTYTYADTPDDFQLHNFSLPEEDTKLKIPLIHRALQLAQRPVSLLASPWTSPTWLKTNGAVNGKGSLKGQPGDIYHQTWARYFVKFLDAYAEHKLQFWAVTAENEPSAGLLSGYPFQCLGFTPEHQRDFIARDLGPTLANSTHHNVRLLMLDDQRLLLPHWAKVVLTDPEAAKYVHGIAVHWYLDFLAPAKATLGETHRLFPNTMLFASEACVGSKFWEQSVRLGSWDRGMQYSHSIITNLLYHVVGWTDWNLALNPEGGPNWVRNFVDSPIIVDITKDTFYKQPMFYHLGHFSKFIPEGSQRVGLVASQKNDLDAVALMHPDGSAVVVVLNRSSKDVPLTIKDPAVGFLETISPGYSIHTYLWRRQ
Format: cell-based
Compound `C[C@@H]1CC[C@H](COc2cc(C(F)(F)F)ccn2)CN1c1cnc2cnn(CC(F)F)c2n1` [Compound 276, 1-(2,2-Difluoroethyl)-6-((2R,5S)-2-methyl-5-(((4-(trifluoromethyl)pyridin-2-yl)oxy)methyl)piperidin-1-yl)-1H-pyrazolo[3,4-b]pyrazine] has an EC50 of 50 to 100 µM. `C[C@@H]1CC[C@H](COc2ncccc2C(F)(F)F)CN1c1cnc2cnn(CC(F)F)c2n1` [Compound 277, 1-(2,2-Difluoroethyl)-6-((2R,5S)-2-methyl-5-(((3-(trifluoromethyl)pyridin-2-yl)oxy)methyl)piperidin-1-yl)-1H-pyrazolo[3,4-b]pyrazine] gave an EC50 of 10 to 50 µM. For `C[C@@H]1CC[C@H](COc2ccnc(C(F)(F)F)c2)CN1c1cnc2cnn(CC(F)F)c2n1` [Compound 278, 1-(2,2-Difluoroethyl)-6-((2R,5S)-2-methyl-5-(((2-(trifluoromethyl)pyridin-4-yl)oxy)methyl)piperidin-1-yl)-1H-pyrazolo[3,4-b]pyrazine], the EC50 was 10 to 50 µM. With `O=C(N1CCCC(COc2ccccc2)C1)C1(c2cnc(-c3ccccc3)s2)CCOCC1` (stereo not drawn) [Compound 279, (3-(Phenoxymethyl)piperidin-1-yl)(4-(2-phenylthiazol-5-yl)tetrahydro-2H-pyran-4-yl)methanone] the EC50 was < 10 µM. In the case of `Cc1ccccc1OCC1CCCN(C(=O)[C@@H]2CCc3nccc(=O)n32)C1` (stereo partly drawn) [Compound 280, (6S)-6-(3-((o-Tolyloxy)methyl)piperidine-1-carbonyl)-7,8-dihydropyrrolo[1,2-a]pyrimidin-4(6H)-one], the EC50 is reported as > 100 µM. `C[C@@H]1C[C@H](COc2cccnc2C(F)(F)F)CN(c2cnc3cnn(CC45CC(C4)C5)c3n2)C1` [Compound 281, 1-(Bicyclo[1.1.1]pentan-1-ylmethyl)-6-((3R,5S)-3-methyl-5-(((2-(trifluoromethyl)pyridin-3-yl)oxy)methyl)piperidin-1-yl)-1H-pyrazolo[3,4-b]pyrazine] was tested, and the EC50 was < 10 µM. With `C[C@@H]1CC[C@H](COc2ccncc2C(F)(F)F)CN1c1cnc2cnn(CC(F)F)c2n1` [Compound 282, 1-(2,2-Difluoroethyl)-6-((2R,5S)-2-methyl-5-(((3-(trifluoromethyl)pyridin-4-yl)oxy)methyl)piperidin-1-yl)-1H-pyrazolo[3,4-b]pyrazine] the EC50 was < 10 µM. Compound `FC(F)Cn1ncc2ncc(N3CC4CC4(COc4cccc(C(F)(F)F)n4)C3)nc21` (stereo not drawn) [Compound 284, 3-[1-(2,2-Difluoroethyl)-1H-Pyrazolo[3,4-b]Pyrazin-6-Yl]-1-({[6-(Trifluoromethyl)Pyridin-2-Yl]Oxy}Methyl)-3-Azabicyclo[3.1.0]Hexane] has an EC50 of 10 to 50 µM. `FC(F)Cn1ncc2ncc(N3CC4CC4(COc4cc(C(F)(F)F)ccn4)C3)nc21` (stereo not drawn) [Compound 285, 3-[1-(2,2-Difluoroethyl)-1H-pyrazolo[3,4-b]pyrazin-6-yl]-1-({[4-(trifluoromethyl)pyridin-2-yl]oxy}methyl)-3-azabicyclo[3.1.0]hexane] showed an EC50 of 10 to 50 µM. With `Cn1c(-c2ccc(F)cn2)nc2ncc(N3C[C@@H]4[C@@H](COc5cc(F)cc(F)c5)[C@@H]4C3)nc21` [Compound 286, 6-((1R,5S,6r)-6-((3,5-Difluorophenoxy)methyl)-3-azabicyclo[3.1.0]hexan-3-yl)-2-(5-fluoropyridin-2-yl)-1-methyl-1H-imidazo[4,5-b]pyrazine] the EC50 was > 100 µM. For `CCn1c(=O)n(CC)c2nc(N3C[C@@H](C)C[C@@H](COc4cccnc4C(F)(F)F)C3)cnc21` [Compound 288a, 1,3-Diethyl-5-((3S,5R)-3-methyl-5-(((2-(trifluoromethyl)pyridin-3-yl)oxy)methyl)piperidin-1-yl)-1,3-dihydro-2H-imidazo[4,5-b]pyrazin-2-one], the EC50 was < 10 µM. For `CCn1c(=O)n(CC)c2nc(N3C[C@@H](C)C[C@H](COc4cccnc4C(F)(F)F)C3)cnc21` [Compound 288b, 1,3-Diethyl-5-((3S,5S)-3-methyl-5-(((2-(trifluoromethyl)pyridin-3-yl)oxy)methyl)piperidin-1-yl)-1,3-dihydro-2H-imidazo[4,5-b]pyrazin-2-one], the EC50 was 10 to 50 µM. In the case of `CN(CC1CCCN(c2ncccc2C(F)(F)F)C1)c1cnc2cnn(CC(F)F)c2n1` (stereo not drawn) [Compound 289, 1-(2,2-Difluoroethyl)-N-methyl-N-((1-(3-(trifluoromethyl)pyridin-2-yl)piperidin-3-yl)methyl)-1H-pyrazolo[3,4-b]pyrazin-6-amine], the EC50 is reported as < 10 µM. In the case of `FC(F)(F)c1ccc2sc([C@H]3[C@@H]4CN(c5cnc6cnn(C7COC7)c6n5)C[C@@H]43)nc2c1` [Compound 290, 2-((1R,5S,6r)-3-(1-(Oxetan-3-yl)-1H-pyrazolo[3,4-b]pyrazin-6-yl)-3-azabicyclo[3.1.0]hexan-6-yl)-5-(trifluoromethyl)benzo[d]thiazole], the EC50 is reported as 10 to 50 µM. `COC1CC(COc2cccnc2C(F)(F)F)CN(c2cnc3cnn(CC(F)F)c3n2)C1` (stereo not drawn) [Compound 291, 1-(2,2-Difluoroethyl)-6-(3-methoxy-5-(((2-(trifluoromethyl)pyridin-3-yl)oxy)methyl)piperidin-1-yl)-1H-pyrazolo[3,4-b]pyrazine] was tested, and the EC50 was < 10 µM. `Cc1ccccc1OCC1CCCN(C(=O)c2cnn3c(-c4ccccc4)ccc(F)c23)C1` (stereo not drawn) [Compound 292, (4-Fluoro-7-phenylpyrazolo[1,5-a]pyridin-3-yl)(3-((o-tolyloxy)methyl)piperidin-1-yl)methanone] showed an EC50 of 10 to 50 µM. For `COCC1CCC(COc2cccnc2C(F)(F)F)CN1c1cnc2cnn(CC(F)F)c2n1` (stereo not drawn) [Compound 295, 1-(2,2-Difluoroethyl)-6-(2-(methoxymethyl)-5-(((2-(trifluoromethyl)pyridin-3-yl)oxy)methyl)piperidin-1-yl)-1H-pyrazolo[3,4-b]pyrazine], the EC50 was < 10 µM. `Cc1ccccc1OCC1CCCN(C(=O)c2cnn3c(-c4ccccc4C#N)ccc(F)c23)C1` (stereo not drawn) [Compound 296, 2-(4-Fluoro-3-(3-((o-tolyloxy)methyl)piperidine-1-carbonyl)pyrazolo[1,5-a]pyridin-7-yl)benzonitrile] was tested, and the EC50 was < 10 µM. For `C[C@@H]1C[C@H](CN(C)C23CC(C2)C3)CN(c2cnc3cnn(CC(F)F)c3n2)C1` [Compound 297], the EC50 was 10 to 50 µM. With `CO[C@@H]1CCN(c2cnc3cnn(CC(F)F)c3n2)C[C@@H]1COc1cccnc1C(F)(F)F` [Compound 298a, 1-(2,2-Difluoroethyl)-6-((3R,4R)-4-methoxy-3-(((2-(trifluoromethyl)pyridin-3-yl)oxy)methyl)piperidin-1-yl)-1H-pyrazolo[3,4-b]pyrazine] the EC50 was 50 to 100 µM. Compound `FC(F)Cn1ncc2ncc(N3C[C@H](COc4cccnc4C(F)(F)F)C[C@H](OC(F)F)C3)nc21` [Compound 299a, 1-(2,2-Difluoroethyl)-6-((3S,5R)-3-(difluoromethoxy)-5-(((2-(trifluoromethyl)pyridin-3-yl)oxy)methyl)piperidin-1-yl)-1H-pyrazolo[3,4-b]pyrazine] has an EC50 of 10 to 50 µM. For `FC(F)Cn1ncc2ncc(N3C[C@H](COc4cccnc4C(F)(F)F)C[C@@H](OC(F)F)C3)nc21` [Compound 299b, 1-(2,2-Difluoroethyl)-6-((3R,5R)-3-(difluoromethoxy)-5-(((2-(trifluoromethyl)pyridin-3-yl)oxy)methyl)piperidin-1-yl)-1H-pyrazolo[3,4-b]pyrazine], the EC50 was < 10 µM. In the case of `O=c1cc(-c2ccccc2)cc(N2CCC[C@H](COc3cccnc3C(F)(F)F)C2)[nH]1` [Compound 300, (S)-4-Phenyl-6-(3-(((2-(trifluoromethyl)pyridin-3-yl)oxy)methyl)piperidin-1-yl)pyridin-2(1H)-one], the EC50 is reported as 10 to 50 µM. `O=c1[nH]c(N2CCC[C@H](COc3cccnc3C(F)(F)F)C2)cc2c1cnn2CC(F)F` [Compound 306, (S)-1-(2,2-difluoroethyl)-6-(3-(((2-(trifluoromethyl)pyridin-3-yl)oxy)methyl)piperidin-1-yl)-1,5-dihydro-4H-pyrazolo[4,3-c]pyridin-4-one] was tested, and the EC50 was > 100 µM. For `O=C(c1ccc2cc[nH]c2c1)N1CCC(Oc2cncc(C(F)(F)F)c2)CC1` [Compound 307, (1H-Indol-6-yl)(4-((5-(trifluoromethyl)pyridin-3-yl)oxy)piperidin-1-yl)methanone], the EC50 was 10 to 50 µM. In the case of `FC(F)Cn1ncc2ncc(N3CCC(COc4ccncc4C(F)(F)F)CC3)nc21` [Compound 308, 1-(2,2-Difluoroethyl)-6-(4-(((3-(trifluoromethyl)pyridin-4-yl)oxy)methyl)piperidin-1-yl)-1H-pyrazolo[3,4-b]pyrazine], the EC50 is reported as < 10 µM. `FC(F)Cn1ncc2ncc(N3CCC(Oc4cccc(C(F)(F)F)n4)CC3)nc21` [Compound 309, 1-(2,2-Difluoroethyl)-6-(4-((6-(trifluoromethyl)pyridin-2-yl)oxy)piperidin-1-yl)-1H-pyrazolo[3,4-b]pyrazine] showed an EC50 of 10 to 50 µM. `O=C(c1ccc2cc[nH]c2c1)N1CCC(Oc2cnccc2C(F)(F)F)CC1` [Compound 310, (1H-Indol-6-yl)(4-((4-(trifluoromethyl)pyridin-3-yl)oxy)piperidin-1-yl)methanone] gave an EC50 of 10 to 50 µM. `FC(F)Cn1ncc2ncc(N3CCC(COc4ncccc4C(F)(F)F)CC3)nc21` [Compound 313, 1-(2,2-Difluoroethyl)-6-(4-(((3-(trifluoromethyl)pyridin-2-yl)oxy)methyl)piperidin-1-yl)-1H-pyrazolo[3,4-b]pyrazine] was tested, and the EC50 was 10 to 50 µM. `O=C(c1ccc2cc[nH]c2c1)N1CCC(Oc2ccc(C(F)(F)F)nc2)CC1` [Compound 314, (1H-Indol-6-yl)(4-((6-(trifluoromethyl)pyridin-3-yl)oxy)piperidin-1-yl)methanone] was tested, and the EC50 was 50 to 100 µM.
